Assay results published in patent US6962713B2, “Spot-on formulations for combating parasites” (Merial, priority 1919, dated 2005).

Experiment: Plasma kinetics of ivermectin after spot-on application at different doses in combination with fipronil to dogs
Assay type: in vivo, dog
Experimental: This study was undertaken in order to assess the linearity of the percutaneous passage of ivermectin after spot-on application of different doses of ivermectin (100, 250, 500 and 1000 μg.kg^−1) in combination with fipronil (10 mg.kg^−1) to the dog. Furthermore, the possibility of control both heartworms and gastro-intestinal nematodes was evaluated.
Twelve male Beagle dogs (allocated into 4 groups of 3 animals were applied spot-on formulations combining ivermectin (0.1%, 0.25%, 0.5% and 1%) and fipronil (10%) at a dose rate of 0.1 ml.kg^−1 (i.e. 100, 250, 500 and 1000 μg.kg^−1 of ivermectin and 10 mg.kg^−1 of fipronil).
The formulations are as follows: […]
The formulations were applied at one spot onto the skin between the shoulder blades.
Blood samples were collected at intervals up to 56 days post treatment.
The determination of ivermectin was carried out by HPLC after an automated solid/liquid extraction, using fluorescence detection, with limit of quantification of 100 pg.ml^−1. The determination of fipronil and its sulfone metabolite (RM1602) was carried out by HPLC with UV detection, with a limit of quantification of 20 ng.ml^−1 for fipronil and RM1602. Both methods were validated in terms of specificity, extraction recovery, linearity, precision and accuracy.

SMILES | plasma concentrations compared with those usually observed in dogs treated at the same dose in previous studies (dog, in vivo) | plasma concentrations compared with those usually observed in dogs treated at the same dose in previous studies (spot-on, fipronil 10 mg.kg^−1, dogs)
N#Cc1nn(-c2c(Cl)cc(C(F)(F)F)cc2Cl)c(N)c1[S+]([O-])C(F)(F)F (centres unmarked) [fipronil, 1-[2,6-Cl2-4-CF3 phenyl]-3-CN-4-[SO—CF3]-5-NH2 pyrazole] | significantly inferior | 
N#Cc1nn(-c2c(Cl)cc(C(F)(F)F)cc2Cl)c(N)c1S(=O)(=O)C(F)(F)F [RM1602] |  | significantly inferior
